Test results: patent US6770787B2, “Heavier halogen atom substituted squaraine based dyes, process for the preparation thereof and use thereof as sensitizers for photodynamic, therapeutical and industrial applications” (priority 2001, dated 2004)
Read-outs that look alike come from different tables or passages of the source.

How the values were obtained:
PM2 DNA [1] = experiment: plasmid DNA cleavage (DNA relaxation assay, single strand breaks) by dye plus light; assay type: biochemical; details: SSB in phosphate buffer pH 7.4 without additive = 100%
[2] = stability in the dark in ethanol and phosphate buffer (absorbance change); assay type: physicochemical; details: for Absorbance: 25° C.
Procedure: (§1) The information about the stability of the sensitizer in presence and absence of light is important for its practical use. Therefore, the stability of these dyes in presence and absence of light in ethanol and phosphate buffer at physiological pH conditions (pH 7.4) at 25° C. was studied by following the absorbance change using spectrophotometry. The results of change in absorbance vs time in the dark with representative squaraine based dyes bis(3,5-dibromo-2,4,6-trihydroxyphenyl)squaraine and bis(3,5-diiodo-2,4,6-trihydroxyphenyl)squaraine are shown in TABLE 3.

PM2 DNA [3] = experiment: plasmid DNA cleavage (DNA relaxation assay, single strand breaks) by dye plus light; assay type: biochemical; details: for Relative number of single strand breaks (%): SSB in phosphate buffer pH 7.4 without additive = 100%; for fold enhancement in the cleavage of DNA: in D2O
Excerpt: The mechanism of in vitro photodynamic activity of squaraines has been evaluated in detail by using plasmid DNA (PM2 DNA) and investigating the cleavage of DNA under a variety of conditions. Cleavage of DNA cleavage was followed by monitoring the conversion of supercoiled (Form I) to open circular (Form II) and linear forms (Form III). Induction of one single strand break by a compound/agent converts Form I to Form II and the quantification of these forms by DNA relaxation assay as described previously (Epe, B.; Hegler, J. J. Methods Enzymol. 1994, 234, 122) indicates its efficiency of DNA cleavage. Plasmid DNA cleavage is a very sensitive technique, which can be used to test the various properties of sensitizers and the DNA damage profiles obtained by using scavengers and activators can serve as a kind of fingerprint of the species directly responsible for the damage and also provide the information on the mechanism of in vitro photodynamic activity.
PM2 DNA (10,000 bp, 10 μg/mL) exposed to squaraine dyes plus light from a 1000 W halogen lamp (Philips PF811) at a distance of 33 cm in phosphate buffer (5 mM KH2PO4, 50 mM NaCl, pH 7.4) on ice. The modified DNA was precipitated by ethanol/sodium acetate and quantified the single strand breaks (SSB) by DNA relaxation assay. Superoxide dismutase (SOD) (20 μg/ml), catalase (315 U/ml) were added or the H2O in the buffer was replaced by D2O (the final isotope purity was greater than 96%) to have a better understanding of the active species involved. The results of these studies with representative squaraine based dyes bis(3,5-dibromo-2,4,6-trihydroxyphenyl)squaraine and bis(3,5-diiodo-2,4,6-trihydroxyphenyl)squaraine are shown in TABLE 2.

[4] = stability under irradiation conditions (photobleaching) in buffer; assay type: physicochemical; details: for Absorbance: 1000 W halogen lamp; for photobleaching: within 5 min of irradiation, buffer pH 7.4
Procedure: as §1
Compound bis(3,5-diiodo-2,4,6-trihydroxyphenyl)squaraine undergoes very fast photobleaching (nearly 50% within 5 min of irradiation), when compared to bis(3,5-dibromo-2,4,6-trihydroxyphenyl)squaraine (25%). The photobleaching was increased with the time of irradiation in both the cases. While photobleaching might be thought to be disadvantageous property in a tumor photosensitizer, but it has potential benefits since dosage can be adjusted to keep the photosensitizer in tumor at effective levels. Moreover because of their fast photobleaching, a patient after the photodynamic treatment is not required to stay in the dark for long periods of time and if required therapy can be repeated frequently with short intervals of time.

AS52 cells [5] = experiment: cell killing efficiency (cytotoxicity) with and without light; assay type: cell-based; details: for cytotoxicity (cell survival): in the dark; for cell killing efficiency (% of cell survival): under illumination conditions, increasing concentration
Procedure: To measure the cell killing efficiency (cytotoxicity) of squaraine based sensitizers with and without light, AS52 cells were exposed to various concentrations of sensitizer. The light exposure was carried out from a 1000 W halogen lamp at a distance of 33 cm in Ca^2+ and Mg^2+ free PBS (140 mM NaCl, 3 mM KCl, 8 mM Na2HPO4, pH 7.4) on ice (10^6 cells/ml). […] The cells were pelleted by centrifugation and resuspended in PBSG three times. The cells were resuspended at 3×10^4 cells/ml in fresh medium at 37° C. and the number of cells were counted repeatedly for 60 h. From the exponential part of the growth curves (between 24 and 60 h), the number of poliferating cells at the time of resuspension was calculated by extrapolation. Cell survival was defined as the ratio between proliferating and resuspended cells.

[6] = solubility at physiological pH; details: physiological pH conditions
AS52 cells [7] = experiment: mutagenicity, gpt locus, 6-thioguanine resistant cells; assay type: cell-based
Procedure: The mutagenic properties of squaraine based sensitizers was measured in AS52 cells, which carry the bacterial guanine phosphoribosyltraiisferase (gpt) gene as a selection marker that confers sensitivity to 6-thioguanine. AS52 cells were cultured in cleansing medium containing 11 μg/ml xanthine 219 μg/ml xanthine, 22 μg/ml adenine, 1.2 μg/ml aminopterin and 8.8 μg/ml mycophenolic acid) for one week to eliminate spontaneous gpt mutants. […] During this time, exponential growth of cells was maintained. 2×10^5 cells were diluted in 10 ml culture medium and plated in petri dishes (94 mm) After 2 h, 6-thioguanine was added to each plate (final concentration 2.5 μg/ml) for selection. 200 cells were added in 5 ml culture medium and plated in petri dishes (60 mm) to determine the cloning efficiencies. The plates were incubated for 7 to 9 days. The medium was replaced by NaCl solution (0.9% v/v), the cell colonies were fixed with methanol (−20° C.) for 15 min and stained with Giemsa (10% in H2O) for 15 min. The subsequent quantification of 6-thioguanine resistant cells and the determination of cytotoxicity (ratio of the plating efficiences of treated and untreated cells) directly after exposure to squaraines plus light carried out according to the protocol (Tindall, K. R.; Stankowski Jr. L. F.; Machanoff, R.; Hsie, A. W. Mutat. Res. 1986, 160, 121-131).

[8] = photosensitized singlet oxygen generation in presence and absence of polyvinylpyrrolidone; assay type: physicochemical
Excerpt: Because triplet excited states were the major transient intermediates obtained upon 532 nm laser flash photolysis studies of bis(3,5-dibromo-2,4,6-trihydroxyphenyl)squaraine and bis(3,5-diiodo-2,4,6-trihydroxyphenyl)squaraine, the efficiency of photosensitized singlet oxygen generation by these systems have been examined, since singlet oxygen is the main cytotoxic agent of the type II reactions in photodynamic therapy. Since singly deprotonated forms of bis(3,5-dibromo-2,4,6-trihydroxyphenyl)squaraine and bis(3,5-diiodo-2,4,6-trihydroxyphenyl)squaraine, have significant triplet yields and have long lifetimes (Ramaiah, D; Joy, A.; Chandrasekhar, N; Eldho, N. V.; Das, S.; George, M. V. Photochem. Photobiol. 1997, 65, 783), moreover these are the forms that are expected to be the predominant species under the biological pH conditions (around 7.4). The first level characterization of these dyes for using them as sensitizers in photodynamic therapy, we have investigated their efficiency of singlet oxygen generation in presence of drug carriers, membrane mimics and microheterogeneous media. Results obtained in presence of polyvinylpyrrolidone (PVP) using bis(3,5-dibromo-2,4,6-trihydroxyphenyl)squaraine and bis(3,5-diiodo-2,4,6-trihydroxyphenyl)squaraine are shown in TABLE 1.

AS52 cells [9] = experiment: induction of micronuclei; assay type: cell-based
Procedure: Further to understand the genetic effects, the micronuclei induced by bis(3,5-dibromo-2,4,6-trihydroxyphenyl)squaraine and bis(3,5-diiodo-2,4,6-trihydroxyphenyl)squaraine were also quantified in AS52 cells. AS52 cells were exposed to squaraines as described above and resuspended in full medium. After incubation for 24 h at 39° C., approximately 1×10^5 cells were fixed on a microscope slide by cytospin-centrifugation and treatment with methanol for 1 h at −21° C. After staining with bisbenzimide for 3 min in PBS (without Ca2+ and Mg2+), 2000 cells were examined for the presence of micronuclei with a fluorescent microscope.

[10] = buffer pH 7.4, irradiation time 0 min
[11] = buffer pH 7.4, irradiation time 5 min
[12] = buffer pH 7.4, irradiation time 10 min
[13] = buffer pH 7.4, irradiation time 15 min
[14] = buffer pH 7.4, irradiation time 20 min
[15] = buffer pH 7.4, irradiation time 30 min

Compound | Relative number of single strand breaks (%) (PM2 DNA [1]; PH 7.8) | Relative number of single strand breaks (%) (PM2 DNA [1]; pH 7.0) | Absorbance ([2]; buffer pH 7.4, dark, 0 min) | Absorbance ([2]; buffer pH 7.4, dark, 30 min) | Absorbance ([2]; buffer pH 7.4, dark, 60 min) | Absorbance ([2]; buffer pH 7.4, dark, 90 min) | Relative number of single strand breaks (%) (PM2 DNA [3]; Catalase (315 U/mL)) | Relative number of single strand breaks (%) (PM2 DNA [3]; D2O Buffer) | Relative number of single strand breaks (%) (PM2 DNA [3]; SOD (20 g/mL)) | fold enhancement in the cleavage of DNA (PM2 DNA [3]) | Absorbance [4, 10] | Absorbance [4, 11] | Absorbance [4, 12] | Absorbance [4, 13] | Absorbance [4, 14] | Absorbance [4, 15] | photobleaching [4] | cytotoxicity (cell survival) (AS52 cells [5]) | cell killing efficiency (% of cell survival) (AS52 cells [5]) | solubility [6] | also measured
O=C1C(I)=C(O)C(=C2C(=O)C(c3c(O)c(I)c(O)c(I)c3O)=C2O)C(O)=C1I [bis(3,5-diiodo-2,4,6-trihydroxyphenyl)squaraine] | 109 ± 22% | 134 ± 9% | 1.35 | 1.47 | 1.38 | 1.36 | 92 ± 6% | 614 ± 97% | 100 ± 2% | six fold | 1.72 | 0.87 | 0.74 | 0.65 | 0.58 | 0.47 | ~50% | no significant effect | high cell killing efficiency | good solubility | stability in the dark ([2]; buffer solutions at pH 7.4, 90 min): slight bleaching; stability in the dark ([2]; ethanol): very stable; induction of mutations (6-thioguanine resistant cells) (AS52 cells [7]; in presence and absence of light): do not induce immediate mutations; cytotoxicity (ratio of plating efficiencies) (AS52 cells [7]; in presence of light): severe cytotoxicity; singlet oxygen quantum yields ([8]; PVP 0 mM): 0.47 ± 0.017; singlet oxygen quantum yields ([8]; PVP 14 mM): 0.62 ± 0.007; increase in efficiency of singlet oxygen generation ([8]; in microheterogeneous media compared with methanol): ~15%; induction of micronuclei (AS52 cells [9]; in presence and absence of light, 24 h incubation): do not induce significant amounts of micronuclei
O=C1C(Br)=C(O)C(=C2C(=O)C(c3c(O)c(Br)c(O)c(Br)c3O)=C2O)C(O)=C1Br [bis(3,5-dibromo-2,4,6-trihydroxyphenyl)squaraine] | 105 ± 4% | 127 ± 12% | 1.84 | 1.72 | 1.65 | 1.61 | 115 ± 5% | 526 ± 28% | 109 ± 5% | Nearly five | 1.8 | 1.35 | 1.30 | 1.25 | 1.17 | 1.10 | 25% | no significant effect | high cell killing efficiency | good solubility | stability in the dark [2]: very stable; Absorbance ([2]; ethanol, dark, 0 min): 1.90; Absorbance ([2]; ethanol, dark, 30 min): 1.88; Absorbance ([2]; ethanol, dark, 60 min): 1.88; Absorbance ([2]; ethanol, dark, 90 min): 1.88; induction of mutations (6-thioguanine resistant cells) (AS52 cells [7]): do not induce immediate mutations; singlet oxygen quantum yields ([8]; PVP 0 mM): 0.13 ± 0.005; singlet oxygen quantum yields ([8]; PVP 14 mM): 0.29 ± 0.001; induction of micronuclei (AS52 cells [9]): do not induce significant amounts of micronuclei
